Twelve molecules from patent publication US20090054304A1, “HETEROCYCLIC MODULATORS OF TGR5 FOR TREATMENT OF DISEASE” (KALYPSYS, INC., priority 2007, published 2009) can be followed below.

This test deals with T1, human TGR5 (Homo sapiens, UniProt Q8TDU6).
T1 construct: expressed in transfected cells
T1 sequence (Q8TDU6 1-330): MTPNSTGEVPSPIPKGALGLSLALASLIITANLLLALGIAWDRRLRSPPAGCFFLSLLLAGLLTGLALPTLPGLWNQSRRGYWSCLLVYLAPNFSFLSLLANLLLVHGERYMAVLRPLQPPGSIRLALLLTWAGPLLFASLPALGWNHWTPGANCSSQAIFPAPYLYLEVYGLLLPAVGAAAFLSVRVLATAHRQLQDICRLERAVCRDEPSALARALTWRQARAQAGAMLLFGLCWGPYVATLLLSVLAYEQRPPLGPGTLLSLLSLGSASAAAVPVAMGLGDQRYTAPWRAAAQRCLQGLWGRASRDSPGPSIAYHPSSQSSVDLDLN
The test can be described thus: cAMP production assay in HEK293 cells stably expressing TGR5 (LANCE TR-FRET). Format: cell-based. The following applies: 30 minutes stimulation, 1 mM IBMX, read-out: cAMP Production in 293-TGR5 Cells. As to the method:
HEK293 cells stably expressing TGR5 (HEK293-TGR5) were established by stably transfecting HEK-293 cells with an expression vector (pcDNA 3.1, Invetrogen) inserted with human TGR5 cDNA using Fugene6 (Roche, Indianapolis, Ind.) according to conventional methods. Cells were grown in DMEM (invitrogen, Carlsbad, Calif.) supplemented with 10% FBS, 1% penicillin/streptomycin under geneticin selection. The presence of TGR5 transcripts in these cells was confirmed using branched DNA (bDNA, Genospectra, Inc., Fremont Calif.) following the manufacturer's protocol and using specific probes for human TGR5. cAMP production assay was performed in high throughput 1536 well format using LANCE cAMP detection kit (Perkin Elmer Inc., Boston, Mass.) according to the manufacturer's protocol. Briefly, HEK293-TGR5 cells were harvested using non-enzymatic cell dissociation buffer (Invitrogen, Carlsbad, Calif.) and suspended in DMEM supplemented with 0.1% FBS at a density of 800,000 cells/ml. Alexa antibody was added to the cell suspension, and 4 ul of the mixture was dispensed in white opaque tissue culture treated Greiner 1536 well plates (USA Scientific, Inc., Ocala, Fla.). After an overnight incubation at 37C in an atmosphere of 10% CO2 and 95% humidity, 1 ul of 5 mM IBMX (Sigma, St. Louis, Mo.) solution in DMEM was dispensed for a final concentration of 1 mM. Cells were then stimulated with test compounds for 30 minutes, after which time 5 ul of detection reagent was added and incubated for 1-7 hrs at room temperature. TR-FRET signal was detected using the Viewlux (Perkin Elmer Inc., Boston Mass.). EC50 values were determined using Graph Pad Prizm analysis (GraphPad Software, Inc). The EC50 values for a wide range of bile acids generated from this assay were in agreement with the values published in the scientific literature. […] The symbol (+) denotes an EC50 value of ≦10 μM while the symbol (−) denotes an EC50 value of >10 μM (see Table 1).

Take `CC(C)n1ncc2cc(CNCc3ccc(C(F)(F)F)cc3)c(-c3ccsc3)nc21` [Example 1, 1-(1-isopropyl-6-(thiophen-3-yl)-1H-pyrazolo[3,4-b]pyridin-5-yl)-N-(4-(trifluoromethyl)benzyl)methanamine]: the EC50 is at most 10 µM.

Regarding `CC(C)n1ncc2cc(CNCCc3ccc(Br)cc3)c(-c3ccsc3)nc21` [Example 2, 2-(4-Bromophenyl)-N-((1-isopropyl-6-(thiophen-3-yl)-1H-pyrazolo[3,4-b]pyridin-5-yl)methyl)ethanamine], the EC50 was at most 10 µM. As for `Cc1nn(C)c2nc(-c3ccsc3)c(CNCCc3ccc(Br)cc3)cc12` [Example 3, 2-(4-bromophenyl)-N-((1,3-dimethyl-6-(thiophen-3-yl)-1H-pyrazolo[3,4-b]pyridin-5-yl)methyl)ethanamine], the EC50 is at most 10 µM. To `Cc1nn(C)c2nc(-c3ccsc3)c(CNCc3ccc(C(F)(F)F)cc3)cc12` [Example 4, 1-(1,3-dimethyl-6-(thiophen-3-yl)-1H-pyrazolo[3,4-b]pyridin-5-yl)-N-(4-(trifluoromethyl)benzyl)methanamine] belongs over 10 µM; to `Brc1ccc(CCNCc2cc3sccc3nc2-c2ccsc2)cc1` [Example 5, 2-(4-bromophenyl)-N-((5-(thiophen-3-yl)thieno[3,2-b]pyridin-6-yl)methyl)ethanamine], at most 10 µM; to `Brc1ccc(CCNCc2cc3ccsc3nc2-c2ccsc2)cc1` [Example 6, 2-(4-bromophenyl)-N-((6-(thiophen-3-yl)thieno[2,3-b]pyridin-5-yl)methyl)ethanamine], at most 10 µM. To `FC(F)(F)c1ccc(CNCc2cc3ccsc3nc2-c2ccsc2)cc1` [Example 7, 1-(6-(thiophen-3-yl)thieno[2,3-b]pyridin-5-yl)-N-(4-(trifluoromethyl)benzyl)methanamine] belongs at most 10 µM; to `Brc1ccc(CCNCc2cc3ccncc3nc2-c2ccsc2)cc1` [Example 8, 2-(4-bromophenyl)-N-((2-(thiophen-3-yl)-1,7-naphthyridin-3-yl)methyl)ethanamine], at most 10 µM. Then `COc1cc2nc(-c3ccsc3)c(CNCCc3ccc(Br)cc3)cc2cn1` [Example 9, 2-(4-bromophenyl)-N-((7-methoxy-2-(thiophen-3-yl)-1,6-naphthyridin-3-yl)methyl)ethanamine], with at most 10 µM; and `O=c1cc2nc(-c3ccsc3)c(CNCCc3ccc(Br)cc3)cc2c[nH]1` [Example 10, 3-((4-bromophenethylamino)methyl)-2-(thiophen-3-yl)-1,6-naphthyridin-7(6H)-one], with over 10 µM. As to `COc1ccc2cc(CNCCc3ccc(Br)cc3)c(-c3ccsc3)nc2n1` [Example 11, 2-(4-bromophenyl)-N-((7-methoxy-2-(thiophen-3-yl)-1,8-naphthyridin-3-yl)methyl)ethanamine], the EC50 was at most 10 µM.

Consider `O=c1ccc2cc(CNCCc3ccc(Br)cc3)c(-c3ccsc3)nc2[nH]1` [Example 12, 6-((4-bromophenethylamino)methyl)-7-(thiophen-3-yl)-1,8-naphthyridin-2(1H)-one], for which the EC50 was at most 10 µM.
